Experimental data reported in patent US20170239289A1, “TREATMENT OF INFLAMMATION, RESPIRATORY TRACT INFECTIONS AND CYSTIC FIBROSIS” (Advanced Inhalation Therapies (AIT) Ltd., priority 2014, published 2017).

Test system: mucoid P. aeruginosa
Assay: Example 4: bacterial and fungal sputum load
Assay type: in vivo
Method: In addition to their standard care, subjects were administered three 30-minute inhalations per day of 160 ppm NO (with O2/air) for 10 working days (i.e., 5 days on treatment, 2 days off treatment, 5 days on treatment, for a total of 10 treatment days and 30 inhalations).
Secondary Endpoints—Efficacy: • Comparison of FEV1 improvement before and after NO treatment Observational Endpoints: • To determine the reduction in bacterial and fungal sputum load during each week of NO treatment compared to bacterial sputum load before NO treatment • Assess the improvement of lung function indices during and after NO intermittent inhalation treatment as determined by spirometry (i.e., FVC, FEV1, FEV1/FVC, forced expiratory flow 25% to 75% (FEF 25-75)) • Evaluate C-reactive protein (CRP) levels over time • Number of subjects with study drug related bleeding at any time point
Results of the bacterial and fungal sputum load analysis were highly variable, and due to limitations of the sampling and testing technique, must be interpreted with caution. Microbiology results were recorded from Day 1 to end of follow-up, for all samples taken during the study. In order for NO therapy to be efficient, a minimal exposure of the microbial population to NO for the whole duration of the study is required. […] Thus, data was analyzed only for cultures with positive results on Day 1. Furthermore, samples from 2 subjects (SO-01 and SO-02) were not analyzed by the central laboratory. A summary of the bacterial and fungal sputum results at Day 1 and Day 9 is presented according to subject in Table 18.

[N]=O [NO, nitric oxide]
Mucoid P. aeruginosa, % change from Day 1 to Day 9 (Subject SC-01): −3.7%
Mucoid P. aeruginosa sputum load (Subject SC-01, Day 1): 2,700 CFU/mL × 10^−4
Mucoid P. aeruginosa sputum load (Subject SC-01, Day 9): 2,600 CFU/mL × 10^−4
Mucoid P. aeruginosa, % change from Day 1 to Day 9 (Subject SC-05): −99.9%
Mucoid P. aeruginosa sputum load (Subject SC-05, Day 1): 29,000 CFU/mL × 10^−4
Mucoid P. aeruginosa sputum load (Subject SC-05, Day 9): 30.0 CFU/mL × 10^−4
